Laboratory results reported in patent publication US10550114B2, “Kinase inhibitors and their use in cancer therapy” (TECHNISCHE UNIVERSITÄT DORTMUND, priority 2015, dated 2020).
Read-outs that look alike come from different tables or passages of the source.

Tests used:
[1] = Pharmacokinetic profiling in mice (plasma, LC-MS/MS); details: for bioavailability: CD1, mouse, in vivo
Description: EDTA was added to plasma in order to prevent blood from coagulation. The compound concentrations in the particular plasma samples were determined by LC-MS/MS, as follows:
Samples and blanks were prepared by adding 2.5 μL blank DMSO and 80 μL of ice-cold acetonitrile containing the internal standard (Griseofulvin, 1 μM) to 20 μl plasma followed by centrifugation at 13000 rpm (4° C.) for 10 min. 65 μL of the supernatant were diluted with 65 μL of LC-MS grade water. Samples were filtered (Millipore MSRLN0450 hydrophil) and subjected to LC-MS measurement. […] 2.5 μL of the corresponding DMSO stock solution were added to 20 μL of blank plasma followed by the addition of 80 μL of ice-cold acetonitrile containing the internal-standard. The samples were centrifuged for 10 min and 4° C. at 13000 rpm. 65 μL of the supernatant were diluted with 65 μL of LC-MS grade water and subjected to LC-MS analysis. A set of 3 different QCs (n=3) was prepared by adding of 2.5 μL DMSO stock solution (5, 0.5 and 0.05 μM) to 20 μL of plasma. Samples were subsequently handled as described above. All samples were analyzed using a Shimadzu LC20ADXR Solvent Delivery Unit, a Shimadzu SIL30ACMP autosampler and a ABSciex Qtrap5500 LC-MS/MS system. Therefore, 2 μL of sample were injected and separated using an Agilent Poroshell C18, 2.7 μm column (2.1 mm×50 mm) at 60° C. starting at 5% of solvent B for 0.3 min followed by a gradient up to 100% of solvent B over 0.6 min (flow rate 1 mL/min) with 0.1% formic acid in water as solvent A and 0.1% formic acid in acetonitrile as solvent B. Data evaluation was performed using Analyst 1.6.2 Software (Sciex).

GIST-T1 cells = assay: Western blot in gastrointestinal stromal tumor cells; assay type: cell-based, human; details: GIST-T1, 24 hours
Description: For GIST-T1 cells protein lysates were prepared from cell line monolayers according to standard protocols as described in A. Duensing, F. Medeiros, B. McConarty, N. E. Joseph, D. Panigrahy, S. Singer, C. […] Protein concentrations were determined with the Bio-Rad Protein Assay (Bio-Rad Laboratories, Hercules, Calif.). Electrophoresis and immunoblotting were carried out as described in B. P. Rubin, S. Singer, C. Tsao, A. Duensing, M. L. Lux, R. Ruiz, M. K. Hibbard, C. J. Chen, S. Xiao, D. A. Tuveson, G. D. Demetri, C.
Controls were treated with dimethyl sulfoxide (DMSO).

PC3 cells = assay: Western blot in prostate cancer cells; assay type: cell-based, human; details: PC3, 24 hours
Description: (§1) Human ductal breast carcinoma cells (BT474) and human prostate adenocarcinoma cells (PC-3) were purchased from the ATCC (Bethesda, Md., USA) and were cultured in RPMI 1640 medium (Life Technologies, Germany) supplemented with 10% (v/v) fetal calf serum (FCS; Biochrom, Berlin, Germany) and maintained in a humidified incubator at 37° C. and 5% CO2 (C200, Labotect Incubator, Göttingen, Germany).
(§2) BT474 and PC-3 cells were lysed for 10 min at 95° C. in 62.5 mM Tris-HCl (pH 6.8), 2% (w/v) SDS, 10% (v/v) glycerol, 80 mM DTT, and 0.01% (w/v) bromophenol blue (350.000 cells per 100 μL lysis buffer). Proteins were separated by SDS-PAGE and blotted onto PVDF-membranes (Roth, Karlsruhe, Germany) using Fastblot according to manufacturer's manual (B44, Biometra, Goettingen, Germany). After blocking with 5% (w/v) nonfat dry milk membranes were incubated at 4° C. over night with the respective primary antibody (1:20.000 for β-actin, 1:1000 for all other antibodies). After washing, the membranes were incubated for 1 h at room temperature with the secondary antibody (anti-IgG-HRP 1:2000, CST, Frankfurt, Germany) washed again and monitored by chemiluminescence imaging using FUSION Solo (peqlab, Erlangen, Germany) and appropriate ECL Prime Western blotting detection reagent according to the manufacturer's protocol (GE Healthcare/Amersham-Biosciences, Freiburg, Germany). […]

MAP4K5 = MAP4K5 (Homo sapiens (Human), UniProt Q9Y4K4); assay: Z'LYTE kinase assay, SelectScreen panel; assay type: biochemical; details: 1 μM compound, apparent ATP KM
Chain of MAP4K5 (Q9Y4K4 whole entry): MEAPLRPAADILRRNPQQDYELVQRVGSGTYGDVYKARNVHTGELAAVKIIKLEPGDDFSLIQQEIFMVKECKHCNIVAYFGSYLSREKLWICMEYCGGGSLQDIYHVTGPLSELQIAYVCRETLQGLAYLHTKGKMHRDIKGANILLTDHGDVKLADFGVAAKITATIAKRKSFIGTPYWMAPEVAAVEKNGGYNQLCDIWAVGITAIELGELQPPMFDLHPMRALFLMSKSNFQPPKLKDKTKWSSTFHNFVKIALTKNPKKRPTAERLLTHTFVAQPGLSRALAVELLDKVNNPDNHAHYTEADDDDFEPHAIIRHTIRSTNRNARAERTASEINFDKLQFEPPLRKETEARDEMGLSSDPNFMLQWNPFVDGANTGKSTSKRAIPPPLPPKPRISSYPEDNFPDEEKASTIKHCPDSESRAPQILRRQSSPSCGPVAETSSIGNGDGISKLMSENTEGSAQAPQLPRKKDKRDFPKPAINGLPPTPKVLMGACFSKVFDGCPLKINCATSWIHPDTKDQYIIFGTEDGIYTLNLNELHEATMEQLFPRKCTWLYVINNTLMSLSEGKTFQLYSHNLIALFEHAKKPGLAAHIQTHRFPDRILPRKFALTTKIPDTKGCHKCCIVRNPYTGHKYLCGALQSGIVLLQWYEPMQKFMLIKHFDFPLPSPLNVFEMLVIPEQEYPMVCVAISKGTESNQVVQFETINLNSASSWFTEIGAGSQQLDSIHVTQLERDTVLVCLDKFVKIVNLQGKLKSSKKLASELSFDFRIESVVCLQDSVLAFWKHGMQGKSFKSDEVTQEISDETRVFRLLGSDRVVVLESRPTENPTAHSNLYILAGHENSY

[2] = Maximum tolerated dose in mice; details: RjOrl:SWISS, mouse, in vivo, ip, PBS/PEG200 (60:40)
BT474 cells = assay: Western blot in breast cancer cells; assay type: cell-based, human; details: BT474, 24 hours
Description: as §1, §2

[3] = molecular target: T1, activated full-length wtAkt1 (Homo sapiens (Human), UniProt P31749); assay: Activity-based (HTRF) assay, manual dilution series; details: for higher concentration required for half-maximum inhibition of Akt1 versus alkenyl counterpart: 1b vs 1a, 2b vs 2a
T1 sequence (P31749 whole entry): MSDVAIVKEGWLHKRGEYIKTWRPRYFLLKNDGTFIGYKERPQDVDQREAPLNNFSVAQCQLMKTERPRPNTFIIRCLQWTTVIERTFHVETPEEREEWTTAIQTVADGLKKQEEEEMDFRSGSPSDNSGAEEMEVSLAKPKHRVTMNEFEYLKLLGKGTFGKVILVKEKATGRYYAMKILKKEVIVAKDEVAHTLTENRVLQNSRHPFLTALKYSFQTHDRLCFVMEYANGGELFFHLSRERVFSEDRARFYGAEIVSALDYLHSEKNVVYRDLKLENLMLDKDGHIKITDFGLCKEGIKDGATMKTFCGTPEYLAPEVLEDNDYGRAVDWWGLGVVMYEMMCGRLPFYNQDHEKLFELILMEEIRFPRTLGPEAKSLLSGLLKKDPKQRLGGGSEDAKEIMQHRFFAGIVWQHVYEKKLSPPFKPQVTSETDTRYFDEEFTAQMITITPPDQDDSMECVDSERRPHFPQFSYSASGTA
Description: OriginPro 9.1G software (OriginLab Corporation, Northhampton, Mass.) was used for data analysis and data was fit to a sigmoidal dose-response model using the following four-parameter logistic equation:
(§5) The potential influence of the reactive alkenyl group functioning as a Michael acceptor was further evaluated and the inhibitory potencies further assessed in activity-based studies utilizing activated full-length wtAkt1 (Millipore).

[4] = molecular target: fluorescently labeled full-length Akt1 (Homo sapiens (Human), UniProt P31749, C296S/C310S/C344S/E49C); assay: iFLiK binding analysis; details: fluorophore-labeled Akt1 200 nM; n.r. = no response up to 100 μM
Chain of fluorescently labeled full-length Akt1 (P31749 whole entry E49C/C296S/C310S/C344S): as the sequence (P31749 whole entry) above, with E49C, C296S, C310S, C344S counted along it
Description: Afterwards they were cloned into pREN4427-HIS-DEST vector and introduced into a baculovirus using the BacMagic Kit (Calbiochem) in Sf9 cells (Invitrogen). Protein expression, purification and labeling was performed according to standard protocols.
The final concentration of fluorophore-labeled recombinant Akt1 was 200 nM.

[5] = molecular target: T1, activated full-length wtAkt1; assay: Time-dependent activity-based screening; assay type: biochemical; details: incubation 10, 30, 60 or 300 minutes
Full-length wtAkt1 = Full-length wtAkt1 (Homo sapiens (Human), UniProt P31749); assay: ESI-MS/MS analysis after tryptic digest; assay type: binding; details: 2-fold molar excess
Chain of Full-length wtAkt1 (P31749 whole entry): as the sequence (P31749 whole entry) above
Description: Protoc. […] 3 μL of sample were loaded onto a pre-column cartridge and desalted for 5 min using 0.1% TFA in water as eluent at a flow rate of 30 μL/min. The samples were back-flushed from the pre-column to the nano-HPLC column during the whole analysis. […] During the complete gradient cycle, a typical TOP10 shot-gun proteomics method for the MS and MS/MS analysis was used. […] Biotechnol.

wild-type Akt1 [6] = molecular target: T2, wild-type Akt1 (Homo sapiens (Human), UniProt P31749); assay: ESI-MS of compound-treated Akt1; assay type: binding; details: 2 molar equivalents, thirty minutes on ice, vs DMSO control
T2 sequence (P31749 whole entry): as above
Description: Purified full-length wtAkt1 was thawed under cold water and diluted to a final concentration of 1 mg/mL in storage buffer (50 mM HEPES, 200 mM NaCl, 10% Glycerol, pH 7.4). […] Following incubation for thirty minutes on ice, the samples were analyzed by ESI-MS using an Agilent 1100 Series HPLC System connected to a ThermoFinnigan LTQ Linear Ion Trap mass spectrometer. […] During the complete experiment, a mass range of 700 to 2000 m/z was scanned and raw data was deconvoluted and analyzed with MagTran and mMass (Version 5.5.0) software.

[7] = molecular target: T1, activated full-length wtAkt1; assay: Kinetic characterization by determination of kinact/Ki (time-dependent IC50); assay type: biochemical; details: incubation 1 to 120 minutes; manual dilution series
Description: (§3) Time-dependent IC50 measurements were performed with activated full-length Akt1 as described under “Biochemical assays”. Briefly, IC50 values were determined for twelve different incubation times and afterwards plotted versus accordingly. Data was analyzed according to literature procedure as described in B. F. Krippendorff, R. Neuhaus, P. Lienau, A. Reichel, W. Huisinga, J. Biomol. Screen.
(§4) Calculated IC50 values were plotted versus the incubation time and data was fit as described in the literature to determine kinact and Ki as described above.

[8] = molecular target: activated full-length Akt1 (Homo sapiens (Human), UniProt P31749); assay: Kinetic parameters (Ki, kinact), ECHO520 dilution series; assay type: biochemical; details: for kinact/KI: ECHO520
Chain of activated full-length Akt1 (P31749 whole entry): as above
Description: as §3, §4

Akt1_E17K = Akt1_E17K (Homo sapiens (Human), UniProt P31749, E17K); assay: Activity-based assay, ECHO520 dilution series; assay type: biochemical; details: mutant Akt1_E17K
Chain of Akt1_E17K (P31749 whole entry E17K): as the sequence (P31749 whole entry) above, with E17K counted along it
Description: as §5

wild-type Akt1 [9] = molecular target: T2, wild-type Akt1; assay: Activity-based assay, ECHO520 dilution series; assay type: biochemical
Description: as §5

[10] = activated full-length wtAkt1, 120 pM, manual dilution series

Compound: C=CC(=O)Nc1ccc2[nH]c(=O)n(C3CCN(Cc4ccc(-c5nc6cc[nH]c(=O)c6cc5-c5ccccc5)cc4)CC3)c2c1 [Compound 1a, N-(2-oxo-3-(1-(4-(5-oxo-3-phenyl-5,6-dihydro-1,6-naphthyridin-2-yl)benzyl)piperidin-4-yl)-2,3-dihydro-1H-benzo[d]imidazol-5-yl) acrylamide]
- bioavailability ([1]; ip, 20 mg/kg): 47.7%
- bioavailability ([1]; po, 20 mg/kg): 10.8%
- maximum plasma concentration ([1]; i.p., 20 mg/kg): 1.15 µM
- time of maximum plasma concentration ([1]; i.p., 20 mg/kg): 45 min
- maximum plasma concentration ([1]; i.v., 2 mg/kg): 1.05 µM
- time of maximum plasma concentration ([1]; i.v., 2 mg/kg): immediately after injection
- maximum plasma concentration ([1]; p.o., 20 mg/kg): 0.62 µM
- time of maximum plasma concentration ([1]; p.o., 20 mg/kg): 15 min
- phosphorylation of downstream targets S6 and 4EBP1 (GIST-T1 cells): decreasing phosphorylation
- cellular pAkt1 levels (GIST-T1 cells; 0.001-0.1 μM): reduces cellular pAkt1 levels at low nanomolar concentrations
- phosphorylation of Akt1 substrate GSK3β (PC3 cells): decreased phosphorylation
- pAkt1 (Thr308 and Ser473) level (PC3 cells; 0.01-10 μM): dose-dependent decreases of pAkt1
- inhibition at 1 µM (MAP4K5): 37%
- MTD [2]: 20 mg/kg
- phosphorylation of Akt1 substrate GSK3β (BT474 cells): decreased phosphorylation
- pAkt1 (Thr308 and Ser473) level (BT474 cells; 0.01-10 μM): dose-dependent decreases of pAkt1

Compound: CCC(=O)Nc1ccc2[nH]c(=O)n(C3CCN(Cc4ccc(-c5nc6cc[nH]c(=O)c6cc5-c5ccccc5)cc4)CC3)c2c1 [Compound 1b, N-(2-OXO-3-(1-(4-(5-OXO-3-PHENYL-5,6-DIHYDRO-1,6-NAPHTHYRIDIN-2-YL)BENZYL)PIPERIDIN-4-YL)-2,3-DIHYDRO-1H-BENZO[D]IMIDAZOL-5-YL) PROPIONAMIDE]
- higher concentration required for half-maximum inhibition of Akt1 versus alkenyl counterpart [3]: 10 fold
- IC50 [3, 10]: 7.5 ± 2 nM
- Kd [4]: 62 ± 12 nM
- time dependence of dose-response curves [5]: No differences were observed

Compound: C=CC(=O)Nc1cccc(-c2cn(C3CCN(Cc4ccc(-c5nc6ccccn6c5-c5ccccc5)cc4)CC3)nn2)c1 [Compound 2a, N-[3-(1-{1-[4-(3-Phenylimidazo[1,2-a]pyridin-2-yl)benzyl]piperidin-4-yl}-1H-1,2,3-triazol-4-yl)phenyl]acrylamide]
- covalently modified residues (Full-length wtAkt1): covalently bind to Akt1 at Cys296 and Cys310
- mass increase of Akt1 (single labeled) (wild-type Akt1 [6]): 572 Da
- kinact/KI [7]: 2300 ± 300 M⁻¹ s⁻¹
- IC50 [3]: 372 ± 48 nM
- IC50 [3, 10]: 372 ± 48 nM
- Kd [4]: 795 ± 176 nM

Compound: CCC(=O)Nc1cccc(-c2cn(C3CCN(Cc4ccc(-c5nc6ccccn6c5-c5ccccc5)cc4)CC3)nn2)c1 [Compound 2b, N-[3-(1-{1-[4-(3-Phenylimidazo[1,2-a]pyridin-2-yl)benzyl]piperidin-4-yl}-1H-1,2,3-triazol-4-yl)phenyl]propionamide]
- IC50 [3]: 992 ± 328 nM
- higher concentration required for half-maximum inhibition of Akt1 versus alkenyl counterpart [3]: 4 fold
- Kd [4]: 797 ± 180 nM

Compound: CCC(=O)Nc1cccc(C(=O)NC2CCN(Cc3ccc(-c4nc5cc[nH]c(=O)c5cc4-c4ccccc4)cc3)CC2)c1 [Compound 27]
- IC50 [3, 10]: 18.2 ± 13.3 nM
- Kd [4]: 79 ± 21 nM

Compound: CN(C)C/C=C/C(=O)Nc1ccc2[nH]c(=O)n(C3CCN(Cc4ccc(-c5nc6cc[nH]c(=O)c6cc5-c5ccccc5)cc4)CC3)c2c1 [Compound 36]
- kinact [8]: 0.00102 s⁻¹
- kinact/KI [8]: 51000 ± 10000 M⁻¹ s⁻¹

Compound: N#C/C(=C\C1CC1)C(=O)Nc1cccc(C(=O)NC2CCN(Cc3ccc(-c4nc5cc[nH]c(=O)c5cc4-c4ccccc4)cc3)CC2)c1 [Compound 45]
- kinact [8]: 0.00182 s⁻¹
- kinact/KI [8]: 41000 ± 9000 M⁻¹ s⁻¹

Compound: C=CC(=O)Nc1ccc2c(c1)n(C1CCN(Cc3ccc(-c4nc5cc[nH]c(=O)c5cc4-c4ccccc4)cc3)CC1)c(=O)n2C [Compound 46]
- Ki [8]: 1 to 18.9 nM
- kinact [8]: 0.00202 s⁻¹
- kinact/KI [8]: 190000 ± 25000 M⁻¹ s⁻¹

Compound: C=CC(=O)Nc1ccc(C(=O)NC2CCN(Cc3ccc(-c4nc5cc[nH]c(=O)c5cc4-c4ccccc4)cc3)CC2)c(F)c1 [Compound 47]
- IC50 (Akt1_E17K): 2900 ± 137 nM
- IC50 (wild-type Akt1 [9]): 21.3 ± 1.8 nM

Compound: C=CC(=O)Nc1ccc(C(=O)NC2CCN(Cc3ccc(-c4nc5cc[nH]c(=O)c5cc4-c4ccccc4)cc3)CC2)s1 [Compound 48]
- IC50 (Akt1_E17K): 397 ± 172 nM
- IC50 (wild-type Akt1 [9]): 8.1 ± 0.4 nM

Compound: NC1(c2ccc(-c3nc4ccn5c(=O)[nH]nc5c4cc3-c3ccccc3)cc2)CCC1 [MK-2206, reference compound]
- time dependence of dose-response curves [5]: No differences were observed
